Test results as given in ChEMBL document CHEMBL5346973 (J Med Chem, 2023).
pIC50: −log10 of the molar value. Where a SMILES comes first, the peptide text is derived from it.

Assays:
[1] = molecular target: Neuronal acetylcholine receptor subunit alpha-7 (Rattus norvegicus, UniProt Q05941); assay: Antagonist activity at rat alpha7 nACh receptor expressed in Xenopus oocyte assessed as inhibition of acetylcholine-induced response at -70 mV holding potential by voltage-clamp based electrophysiological assay; type: cell-based
Chain of Neuronal acetylcholine receptor subunit alpha-7 (Q05941 whole entry): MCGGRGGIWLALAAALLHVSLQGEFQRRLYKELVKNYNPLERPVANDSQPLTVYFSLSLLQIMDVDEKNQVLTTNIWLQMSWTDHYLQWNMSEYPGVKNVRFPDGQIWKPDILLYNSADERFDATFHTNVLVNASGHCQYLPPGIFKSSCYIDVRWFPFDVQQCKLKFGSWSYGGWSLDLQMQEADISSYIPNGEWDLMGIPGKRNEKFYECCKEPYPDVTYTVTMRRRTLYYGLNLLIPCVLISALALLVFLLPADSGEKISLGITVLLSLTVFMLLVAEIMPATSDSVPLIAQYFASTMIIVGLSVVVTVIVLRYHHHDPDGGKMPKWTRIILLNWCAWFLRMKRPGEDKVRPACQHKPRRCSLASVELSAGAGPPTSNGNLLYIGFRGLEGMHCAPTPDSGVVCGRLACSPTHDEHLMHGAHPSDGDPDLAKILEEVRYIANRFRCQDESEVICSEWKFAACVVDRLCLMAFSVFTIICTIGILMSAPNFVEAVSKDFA

[2] = molecular target: Nicotinic acetylcholine receptor alpha9/alpha10 (Rattus norvegicus, UniProt P43144+Q9JLB5); assay: Antagonist activity at rat alpha9alpha10 nACh receptor expressed in Xenopus oocyte assessed as inhibition of acetylcholine-induced response at -70 mV holding potential by voltage-clamp based electrophysiological assay; type: cell-based
Chain of Nicotinic acetylcholine receptor alpha9/alpha10 (P43144 whole entry): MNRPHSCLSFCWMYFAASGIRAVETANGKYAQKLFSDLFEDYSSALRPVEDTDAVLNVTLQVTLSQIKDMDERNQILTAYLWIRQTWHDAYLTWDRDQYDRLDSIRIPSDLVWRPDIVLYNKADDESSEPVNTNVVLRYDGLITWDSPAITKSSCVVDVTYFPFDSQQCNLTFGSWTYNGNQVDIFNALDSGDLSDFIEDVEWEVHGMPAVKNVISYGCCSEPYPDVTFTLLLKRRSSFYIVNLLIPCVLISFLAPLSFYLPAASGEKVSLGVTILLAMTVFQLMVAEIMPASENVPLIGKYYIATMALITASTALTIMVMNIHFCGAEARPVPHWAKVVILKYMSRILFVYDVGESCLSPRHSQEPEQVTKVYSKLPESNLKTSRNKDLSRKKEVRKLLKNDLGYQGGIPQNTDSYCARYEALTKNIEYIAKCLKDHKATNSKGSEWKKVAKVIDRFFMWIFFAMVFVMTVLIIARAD
Chain of Nicotinic acetylcholine receptor alpha9/alpha10 (Q9JLB5 whole entry): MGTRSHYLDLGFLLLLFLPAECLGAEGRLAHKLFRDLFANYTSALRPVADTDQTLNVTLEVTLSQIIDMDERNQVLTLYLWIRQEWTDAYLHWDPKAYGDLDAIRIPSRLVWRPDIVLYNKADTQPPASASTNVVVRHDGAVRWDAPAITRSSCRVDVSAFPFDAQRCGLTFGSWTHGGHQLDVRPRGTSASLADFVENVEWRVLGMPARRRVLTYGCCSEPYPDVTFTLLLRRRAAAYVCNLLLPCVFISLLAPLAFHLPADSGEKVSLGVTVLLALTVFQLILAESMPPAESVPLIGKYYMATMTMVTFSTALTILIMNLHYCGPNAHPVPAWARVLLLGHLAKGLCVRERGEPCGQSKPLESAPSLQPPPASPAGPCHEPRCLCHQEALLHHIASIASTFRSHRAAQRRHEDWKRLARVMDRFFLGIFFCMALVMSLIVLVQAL

Compound	pIC50 [1]	pIC50 [2]
CC[C@H](C)[C@@H]1NC(=O)[C@H](CCCNC(=N)N)NC(=O)[C@H](CCCNC(=N)N)NC(=O)[C@@H](NC(=O)[C@H](Cc2ccc(O)cc2)NC(=O)[C@H](CCCNC(=N)N)NC(=O)[C@H](CCCNC(=N)N)NC(=O)[C@H](CCCNC(=N)N)NC(=O)[C@H](CCCNC(=N)N)NC(=O)[C@H](CC(=O)O)NC(=O)[C@H](Cc2ccc(O)cc2)NC(=O)[C@@H]2CCCN2C(=O)[C@H](C)NC(=O)[C@H](CCCNC(=N)N)NC(=O)[C@@H]2CSSC[C@H](NC(=O)[C@@H](N)[C@@H](C)O)C(=O)N[C@@H](CCCNC(=N)N)C(=O)N[C@@H](CO)C(=O)N[C@@H](CO)C(=O)NCC(=O)N[C@@H](CCCNC(=N)N)C(=O)N[C@@H](Cc3ccc(O)cc3)C(=O)N2)CSSC[C@@H](C(=O)N[C@H](C(=O)O)C(C)C)NC(=O)[C@H](C)NC(=O)[C@H](CC(=O)O)NC(=O)[C@H]([C@@H](C)O)NC1=O (HELM PEPTIDE1{T.C.R.S.S.G.R.Y.C.R.A.P.Y.D.R.R.R.R.Y.C.R.R.I.T.D.A.C.V}$PEPTIDE1,PEPTIDE1,2:R3-9:R3|PEPTIDE1,PEPTIDE1,20:R3-27:R3$$$V2.0)	5.69	7.59
CC[C@H](C)[C@@H]1NC(=O)[C@H](CCCNC(=N)N)NC(=O)[C@H](CCCNC(=N)N)NC(=O)[C@@H]2CSSC[C@H](NC(=O)[C@H](Cc3ccc(O)cc3)NC(=O)[C@H](CCCNC(=N)N)NC(=O)CNC(=O)[C@H](CO)NC(=O)[C@H](CO)NC(=O)[C@H](CCCNC(=N)N)NC(=O)[C@@H](NC(=O)[C@H](C)N)CSSC[C@@H](C(=O)N[C@H](C(=O)O)C(C)C)NC(=O)[C@H](C)NC(=O)[C@H](CC(=O)O)NC(=O)[C@H]([C@@H](C)O)NC1=O)C(=O)N[C@@H](CCCNC(=N)N)C(=O)N[C@@H](CO)C(=O)N1CCC[C@H]1C(=O)N[C@@H](Cc1ccc(O)cc1)C(=O)N[C@@H](CC(=O)O)C(=O)N[C@@H](CCCNC(=N)N)C(=O)N[C@@H](CCCNC(=N)N)C(=O)N[C@@H](CCCNC(=N)N)C(=O)N[C@@H](CCCNC(=N)N)C(=O)N[C@@H](Cc1ccc(O)cc1)C(=O)N2	5.61	7.85
CC[C@H](C)[C@@H]1NC(=O)[C@H](CCCNC(=N)N)NC(=O)[C@H](CCCNC(=N)N)NC(=O)[C@@H]2CSSC[C@H](NC(=O)[C@H](Cc3ccc(O)cc3)NC(=O)[C@H](CCCNC(=N)N)NC(=O)CNC(=O)[C@H](CO)NC(=O)[C@H](CO)NC(=O)[C@H](CCCNC(=N)N)NC(=O)[C@@H](NC(=O)[C@@H](N)[C@@H](C)O)CSSC[C@@H](C(=O)N[C@H](C(=O)O)C(C)C)NC(=O)[C@H](C)NC(=O)[C@H](CC(=O)O)NC(=O)[C@H]([C@@H](C)O)NC1=O)C(=O)N[C@@H](CCCNC(=N)N)C(=O)N[C@@H](CO)C(=O)N1CCC[C@H]1C(=O)N[C@@H](C)C(=O)N[C@@H](CC(=O)O)C(=O)N[C@@H](CCCNC(=N)N)C(=O)N[C@@H](CCCNC(=N)N)C(=O)N[C@@H](CCCNC(=N)N)C(=O)N[C@@H](CCCNC(=N)N)C(=O)N[C@@H](Cc1ccc(O)cc1)C(=O)N2 (HELM PEPTIDE1{T.C.R.S.S.G.R.Y.C.R.S.P.A.D.R.R.R.R.Y.C.R.R.I.T.D.A.C.V}$PEPTIDE1,PEPTIDE1,2:R3-27:R3|PEPTIDE1,PEPTIDE1,9:R3-20:R3$$$V2.0)	5.33	7.70
